Measurements as given in PubChem BioAssay AID256 (DTP/NCI, 2004).
“And” between values parts separate entries of the source, which are not always exact repeats. Equal entries are not always repeated. Inconclusive results and toxic doses are left out. Rule for the calls: active = survival T/C of 150% or more; inactive = T/C below 125% in these data.

Test system: CD2F1 mice, L1210 leukemia ip, survival T/C
Assay: NCI In Vivo Anticancer Drug Screen. Data for tumor model L1210 Leukemia (intraperitoneal) in CD2F1 (CDF1) mice
Settings: higher = longer survival
In short: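 Transplantable tumor in mice; compound-treated vs vehicle-treated groups. Read-out = treated/control ratio of the measured endpoint.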

[1] = endpoint: mean survival time, dose: 100.0 mg/kg/injection, schedule: Q04DX003 (ip), vehicle: saline with Tween-80
[2] = endpoint: mean survival time, dose: 200.0 mg/kg/injection, schedule: Q04DX003 (ip), vehicle: saline with Tween-80
[3] = endpoint: mean survival time, dose: 400.0 mg/kg/injection, schedule: Q04DX003 (ip), vehicle: saline with Tween-80

Measured: T/C

CC([NH-])C[NH-].[Cl][Pt+2][Cl] (stereo not given)
inactive: endpoint: mean survival time, dose: 0.31 mg/kg/injection, schedule: Q01DX009 (ip), vehicle: saline with Tween-80 105 % of control | endpoint: mean survival time, dose: 0.62 mg/kg/injection, schedule: Q01DX009 (ip), vehicle: saline with Tween-80 107 % of control | endpoint: mean survival time, dose: 1.25 mg/kg/injection, schedule: Q01DX009 (ip), vehicle: saline with Tween-80 112 % of control | endpoint: mean survival time, dose: 2.5 mg/kg/injection, schedule: Q01DX009 (ip), vehicle: saline with Tween-80 105 % of control | endpoint: mean survival time, dose: 2.5 mg/kg/injection, schedule: Q04DX003 (ip), vehicle: saline with Tween-80 115 % of control | endpoint: mean survival time, dose: 5.0 mg/kg/injection, schedule: Q01DX009 (ip), vehicle: saline with Tween-80 86 % of control | endpoint: mean survival time, dose: 5.0 mg/kg/injection, schedule: Q04DX003 (ip), vehicle: saline with Tween-80 115 % of control

CCCC(CN(C)C)C(=O)c1ccccc1 (stereo not given)
inactive: endpoint: mean survival time, dose: 100.0 mg/kg/injection, schedule: Q04DX002 (ip), vehicle: saline with Tween-80 86 % of control

c1ccc(Sc2ccc3ccccc3c2)cc1
inactive: [1] 98 % of control | [2] 101 % of control | [3] 91 % of control

O=C(Nc1nc2ccccc2s1)c1cc2ccccc2cc1O
inactive: [1] 87 % of control | [2] 98 % of control | [3] 91 % of control

CC(=O)N(C)N=Nc1ccc(C(C)C)cc1
inactive: endpoint: mean survival time, dose: 9.37 mg/kg/injection, schedule: Q04DX003 (ip), vehicle: Klucel (hydroxypropylcellulose) (HPC) 97 % of control | endpoint: median survival time, dose: 2.3 mg/kg/injection, schedule: Q01DX009 (ip), vehicle: Klucel (hydroxypropylcellulose) (HPC) 116 % of control | endpoint: median survival time, dose: 4.6 mg/kg/injection, schedule: Q01DX009 (ip), vehicle: Klucel (hydroxypropylcellulose) (HPC) 110 % of control | endpoint: median survival time, dose: 9.37 mg/kg/injection, schedule: Q01DX009 (ip), vehicle: Klucel (hydroxypropylcellulose) (HPC) 116 % of control

O=S(=O)(O)C(S(=O)(=O)O)S(=O)(=O)O
inactive: [1] 96 % of control | [2] 97 % of control | [3] 93 % of control

NC(=O)c1cn(C2OC(CO)C(O)C2O)c2ncnc(N)c12 (stereo not given)
active: endpoint: mean survival time, dose: 2.5 mg/kg/injection, schedule: Q01DX001 (ip), vehicle: carboxymethylcellulose (CMC) 178 % of control
inactive: endpoint: mean survival time, dose: 0.06 mg/kg/injection, schedule: Q01DX009 (ip), vehicle: acid diluted with saline 117 % of control | endpoint: mean survival time, dose: 0.06 mg/kg/injection, schedule: Q01DX009 (ip), vehicle: saline 108 % of control | endpoint: mean survival time, dose: 0.08 mg/kg/injection, schedule: Q## X008 (ip), vehicle: carboxymethylcellulose (CMC) 117 % of control | endpoint: mean survival time, dose: 0.13 mg/kg/injection, schedule: Q01DX009 (ip), vehicle: saline 120 % of control and 121 % of control | endpoint: mean survival time, dose: 0.13 mg/kg/injection, schedule: Q03HX008 (ip), vehicle: saline 124 % of control | endpoint: mean survival time, dose: 0.13 mg/kg/injection, schedule: Q03HX016 (ip), vehicle: saline 123 % of control | endpoint: mean survival time, dose: 0.13 mg/kg/injection, schedule: Q03HX024 (ip), vehicle: saline 119 % of control | endpoint: mean survival time, dose: 0.2 mg/kg/injection, schedule: Q01DX005 (ip), vehicle: saline 115 % of control | endpoint: mean survival time, dose: 0.25 mg/kg/injection, schedule: Q01DX005 (ip), vehicle: saline + alcohol 124 % of control | endpoint: mean survival time, dose: 0.31 mg/kg/injection, schedule: Q## X002 (ip), vehicle: carboxymethylcellulose (CMC) 122 % of control | endpoint: mean survival time, dose: 0.31 mg/kg/injection, schedule: Q## X008 (ip), vehicle: carboxymethylcellulose (CMC) 114 % of control | endpoint: mean survival time, dose: 0.5 mg/kg/injection, schedule: Q01DX009 (ip), vehicle: saline sonified 123 % of control | endpoint: mean survival time, dose: 0.5 mg/kg/injection, schedule: Q03HX024 (ip), vehicle: saline 95 % of control | endpoint: mean survival time, dose: 0.5 mg/kg/injection, schedule: Q04DX003 (ip), vehicle: saline 122 % of control | endpoint: mean survival time, dose: 0.63 mg/kg/injection, schedule: Q01DX001 (ip), vehicle: carboxymethylcellulose (CMC) 123 % of control | endpoint: mean survival time, dose: 0.63 mg/kg/injection, schedule: Q## X002 (ip), vehicle: carboxymethylcellulose (CMC) 124 % of control | endpoint: mean survival time, dose: 0.63 mg/kg/injection, schedule: Q## X008 (ip), vehicle: carboxymethylcellulose (CMC) 91 % of control | endpoint: mean survival time, dose: 1.0 mg/kg/injection, schedule: Q01DX001 (ip), vehicle: saline 115 % of control and 119 % of control | endpoint: mean survival time, dose: 1.0 mg/kg/injection, schedule: Q01DX007 (ip), vehicle: saline 119 % of control | endpoint: mean survival time, dose: 1.0 mg/kg/injection, schedule: Q01DX009 (ip), vehicle: saline sonified 88 % of control and 95 % of control and 111 % of control | endpoint: mean survival time, dose: 1.0 mg/kg/injection, schedule: Q01DX009 (oral), vehicle: saline 93 % of control | endpoint: mean survival time, dose: 1.0 mg/kg/injection, schedule: Q04DX003 (ip), vehicle: saline 122 % of control | endpoint: mean survival time, dose: 1.0 mg/kg/injection, schedule: Q08DX002 (ip), vehicle: saline 117 % of control | endpoint: mean survival time, dose: 1.25 mg/kg/injection, schedule: Q01DX001 (ip), vehicle: carboxymethylcellulose (CMC) 121 % of control | endpoint: mean survival time, dose: 1.25 mg/kg/injection, schedule: Q## X002 (ip), vehicle: carboxymethylcellulose (CMC) 114 % of control | endpoint: mean survival time, dose: 1.5 mg/kg/injection, schedule: Q01DX009 (ip), vehicle: saline with Tween-80 109 % of control | endpoint: mean survival time, dose: 2.0 mg/kg/injection, schedule: Q01DX001 (ip), vehicle: saline 117 % of control and 112 % of control | endpoint: mean survival time, dose: 2.0 mg/kg/injection, schedule: Q01DX001 (oral), vehicle: saline 107 % of control | endpoint: mean survival time, dose: 2.0 mg/kg/injection, schedule: Q01DX009 (ip), vehicle: acid diluted with saline 111 % of control | endpoint: mean survival time, dose: 2.0 mg/kg/injection, schedule: Q01DX009 (ip), vehicle: saline sonified 88 % of control and 93 % of control | endpoint: mean survival time, dose: 2.0 mg/kg/injection, schedule: Q01DX009 (oral), vehicle: saline 97 % of control | endpoint: mean survival time, dose: 2.0 mg/kg/injection, schedule: Q08DX002 (ip), vehicle: saline 119 % of control | endpoint: mean survival time, dose: 4.0 mg/kg/injection, schedule: Q01DX001 (ip), vehicle: saline 121 % of control and 124 % of control | endpoint: mean survival time, dose: 4.0 mg/kg/injection, schedule: Q01DX001 (oral), vehicle: saline 112 % of control | endpoint: mean survival time, dose: 4.0 mg/kg/injection, schedule: Q01DX005 (ip), vehicle: saline + alcohol 93 % of control | endpoint: mean survival time, dose: 4.0 mg/kg/injection, schedule: Q01DX009 (oral), vehicle: saline 98 % of control | endpoint: mean survival time, dose: 4.0 mg/kg/injection, schedule: Q04DX003 (ip), vehicle: saline 101 % of control | endpoint: mean survival time, dose: 4.0 mg/kg/injection, schedule: Q08DX002 (ip), vehicle: saline 120 % of control | endpoint: mean survival time, dose: 8.0 mg/kg/injection, schedule: Q01DX001 (ip), vehicle: saline 113 % of control | endpoint: mean survival time, dose: 8.0 mg/kg/injection, schedule: Q01DX001 (oral), vehicle: saline 101 % of control | endpoint: mean survival time, dose: 8.0 mg/kg/injection, schedule: Q08DX002 (ip), vehicle: saline 88 % of control | endpoint: mean survival time, dose: 16.0 mg/kg/injection, schedule: Q01DX001 (oral), vehicle: saline 107 % of control | endpoint: mean survival time, dose: 125.0 micrograms/kg/injection, schedule: Q01DX006 (iv), vehicle: saline 106 % of control | endpoint: mean survival time, dose: 125.0 micrograms/kg/injection, schedule: Q01DX Z (im), vehicle: saline 100 % of control | endpoint: mean survival time, dose: 250.0 micrograms/kg/injection, schedule: Q01DX006 (iv), vehicle: saline 101 % of control | endpoint: mean survival time, dose: 250.0 micrograms/kg/injection, schedule: Q01DX Z (im), vehicle: saline 101 % of control | endpoint: mean survival time, dose: 500.0 micrograms/kg/injection, schedule: Q01DX006 (iv), vehicle: saline 106 % of control | endpoint: mean survival time, dose: 500.0 micrograms/kg/injection, schedule: Q01DX Z (im), vehicle: saline 107 % of control | endpoint: mean survival time, dose: 1000.0 micrograms/kg/injection, schedule: Q01DX006 (iv), vehicle: saline 109 % of control | endpoint: mean survival time, dose: 1000.0 micrograms/kg/injection, schedule: Q01DX Z (im), vehicle: saline 103 % of control | endpoint: median survival time, dose: 2.0 mg/kg/injection, schedule: Q01DX009 (ip), vehicle: saline 112 % of control

c1ccc(CNc2ncnc3[nH]ncc23)cc1
inactive: endpoint: mean survival time, dose: 1.12 mg/kg/injection, schedule: Q01DX Z (ip), vehicle: carboxymethylcellulose (CMC) 100 % of control | endpoint: mean survival time, dose: 2.25 mg/kg/injection, schedule: Q01DX Z (ip), vehicle: carboxymethylcellulose (CMC) 103 % of control | endpoint: mean survival time, dose: 4.5 mg/kg/injection, schedule: Q01DX Z (ip), vehicle: carboxymethylcellulose (CMC) 100 % of control | endpoint: mean survival time, dose: 9.0 mg/kg/injection, schedule: Q01DX Z (ip), vehicle: carboxymethylcellulose (CMC) 102 % of control

CCCCCCCC(=O)NC1CCC(C(C)(C)C)CC1 (stereo not given)
inactive: endpoint: mean survival time, dose: 100.0 mg/kg/injection, schedule: Q04DX003 (ip), vehicle: other 93 % of control | endpoint: mean survival time, dose: 200.0 mg/kg/injection, schedule: Q04DX003 (ip), vehicle: other 94 % of control | endpoint: mean survival time, dose: 400.0 mg/kg/injection, schedule: Q04DX003 (ip), vehicle: other 89 % of control

Nc1ccn(C2OC3COC2C3O)c(=O)n1 (stereo not given)
inactive: endpoint: mean survival time, dose: 12.5 mg/kg/injection, schedule: Q01DX005 (ip), vehicle: water 101 % of control | endpoint: mean survival time, dose: 25.0 mg/kg/injection, schedule: Q01DX005 (ip), vehicle: water 101 % of control | endpoint: mean survival time, dose: 50.0 mg/kg/injection, schedule: Q01DX005 (ip), vehicle: water 102 % of control | endpoint: mean survival time, dose: 100.0 mg/kg/injection, schedule: Q01DX005 (ip), vehicle: water 101 % of control | endpoint: mean survival time, dose: 200.0 mg/kg/injection, schedule: Q01DX005 (ip), vehicle: water 107 % of control
